For data set [1], the target named is T1, cloned human δ-opioid receptor (Homo sapiens, UniProt P41143).
T1 construct: expressed in transfected cells
Description: Inhibition of DPDPE-stimulated [35S]GTPγS binding. Type of data set: biochemical. (Binding of GTPγS marks nucleotide exchange on a G protein.)

Data set [2] addresses T2, cloned human κ-opioid receptor (Homo sapiens, UniProt P41145).
T2 construct: expressed in transfected cells
Nature of the data set: Inhibition of U69,593-stimulated [35S]GTPγS binding. It counts as biochemical. The note with it: for Kb: antagonism of U69,593-stimulated [35S]GTPγS binding, cloned human κ receptor, read-out: κ, U69,593 Ke; for δ/κ / μ/κ: ratio of Ke values; for δ/κ: selectivity for κ relative to δ; for μ/κ: selectivity for κ relative to μ.

Data set [3] addresses T3, cloned human μ-opioid receptor (Homo sapiens, UniProt P35372).
T3 construct: expressed in transfected cells
Nature of the data set: Inhibition of DAMGO-stimulated [35S]GTPγS binding. Type of data set: biochemical.

Setting [4] is: antagonism of DAMGO-stimulated [35S]GTPγS binding, cloned human μ receptor, read-out: μ, DAMGO Ke.

Where two headings read alike, the source gives them in different places.

The results in this text go back to patent US9512105B2, “1-substituted 4-arylpiperazine as kappa opioid receptor antagonists” (RESEARCH TRIANGLE INSTITUTE, priority 2011, dated 2016).

T3 sequence (P35372 whole entry): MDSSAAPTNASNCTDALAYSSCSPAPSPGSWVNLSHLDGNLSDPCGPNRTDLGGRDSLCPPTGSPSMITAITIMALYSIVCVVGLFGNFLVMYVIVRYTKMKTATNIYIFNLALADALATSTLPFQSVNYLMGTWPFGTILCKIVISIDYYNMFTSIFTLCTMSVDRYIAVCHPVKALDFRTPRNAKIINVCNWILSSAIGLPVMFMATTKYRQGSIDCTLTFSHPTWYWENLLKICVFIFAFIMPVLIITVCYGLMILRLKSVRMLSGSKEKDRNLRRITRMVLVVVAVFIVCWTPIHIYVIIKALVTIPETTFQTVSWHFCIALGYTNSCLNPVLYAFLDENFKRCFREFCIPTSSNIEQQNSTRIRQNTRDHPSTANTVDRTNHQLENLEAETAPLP
T1 sequence (P41143 whole entry): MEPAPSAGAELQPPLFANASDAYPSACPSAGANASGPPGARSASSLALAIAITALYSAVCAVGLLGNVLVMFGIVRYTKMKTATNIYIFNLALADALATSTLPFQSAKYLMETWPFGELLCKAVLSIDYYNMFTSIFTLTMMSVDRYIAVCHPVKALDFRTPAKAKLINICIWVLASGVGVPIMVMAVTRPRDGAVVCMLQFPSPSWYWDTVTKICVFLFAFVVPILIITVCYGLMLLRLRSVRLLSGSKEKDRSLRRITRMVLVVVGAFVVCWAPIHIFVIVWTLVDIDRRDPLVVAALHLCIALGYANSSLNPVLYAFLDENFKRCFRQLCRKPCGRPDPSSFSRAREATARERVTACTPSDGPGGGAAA
T2 sequence (P41145 whole entry): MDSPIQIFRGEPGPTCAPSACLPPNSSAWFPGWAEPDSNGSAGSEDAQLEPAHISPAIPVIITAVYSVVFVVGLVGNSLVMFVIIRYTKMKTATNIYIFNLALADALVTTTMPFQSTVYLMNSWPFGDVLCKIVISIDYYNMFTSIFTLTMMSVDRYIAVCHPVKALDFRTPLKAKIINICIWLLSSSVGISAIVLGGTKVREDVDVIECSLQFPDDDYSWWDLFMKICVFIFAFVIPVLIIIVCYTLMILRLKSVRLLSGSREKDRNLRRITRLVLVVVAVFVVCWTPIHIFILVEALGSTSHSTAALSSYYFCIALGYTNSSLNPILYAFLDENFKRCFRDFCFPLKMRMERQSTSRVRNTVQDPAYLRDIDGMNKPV

What is called melting point is the temperature of the solid-liquid transition. As for `COc1cc(C(=O)N[C@H](CN2CCN(c3cccc(O)c3)[C@@H](C)C2)C(C)C)ccc1Oc1ccccc1O.Cl.Cl` [Compound 19m, 4-(2-Hydroxyphenoxy)-N-[(1S)-1-{[(3S)-4-(3-hydroxyphenyl)-3-methylpiperazin-1-yl]methyl}-2-methylpropyl]-3-methoxybenzamide Dihydrochloride], the melting point was in the range of 95 to 97 °C. In data set [1], this compound returned a Kb of 67 ± 47 nM. For the same compound, in data set [2], the Kb was determined as 16.3 ± 2.7 nM, the δ/κ was 4 and the μ/κ was 5. Further, in data set [3] (setting [4]), the Kb was 74 ± 23 nM.
`COc1cc(C(=O)N[C@H](CN2CCN(c3cccc(O)c3)[C@@H](C)C2)C(C)C)ccc1Oc1cc(C)ccc1O.Cl.Cl` [Compound 19o, 4-(2-Hydroxy-5-methylphenoxy)-N-[(1S)-1-{[(3S)-4-(3-hydroxyphenyl)-3-methylpiperazin-1-yl]methyl}-2-methylpropyl]-3-methoxybenzamide Dihydrochloride] came in with a melting point of 100 to 103 °C. In addition, in data set [1], the Kb worked out at 37 ± 13 nM. In data set [2], the Kb came out at 6.2 ± 2.2 nM, the δ/κ was 6 and the μ/κ was 2. This compound returned a Kb in data set [3] of 10 ± 2.6 nM.
`Cc1ccc(O)c(Oc2ccc(C(=O)N[C@H](CN3CCN(c4cccc(O)c4)[C@@H](C)C3)C(C)C)cc2Cl)c1.Cl.Cl` [Compound 19p, 3-Chloro-4-(2-hydroxy-5-methylphenoxy)-N-[(1S)-1-{[(3S)-4-(3-hydroxyphenyl)-3-methylpiperazin-1-yl]methyl}-2-methylpropyl]benzamide Dihydrochloride] showed a melting point of 145 to 148 °C. In addition, the Kb in data set [1] (antagonism of DPDPE-stimulated [35S]GTPγS binding, cloned human δ receptor, read-out: δ, DPDPE Ke) was determined as 15 ± 3.6 nM. Moreover, in data set [2], the Kb came out at 3 ± 1.1 nM, the δ/κ came out at 5 and the μ/κ is reported as 3. Further, the Kb in data set [3] (setting [4]) was 8.2 ± 1.7 nM.
